Results on 4 molecules are retold here after article PMC8537953 (Viruses, 2021).

SMILES strings stand for the structures. Like-named read-outs stand apart in the source and are kept apart here.

The conditions of data set [1]: human, in vivo, cited from earlier work.
The subject of data set [2] is influenza A. The note with it: read-out: in vitro EC50 (influenza A); cited from earlier work.
Data set [3] can be described thus: in vitro. The note with it: human.
The conditions of data set [4]: cited from earlier work.
For data set [5], the system named is SARS-CoV-2. The note with it: read-out: EC50 against SARS-CoV-2; cited from earlier work.
Data set [6] deals with SARS-CoV-2. Briefly: microbe, parasite or virus in culture. The note with it: Severe acute respiratory syndrome coronavirus 2, Vero C1008, 6 h, read-out: % inhibition of SARS-CoV-2 infection, post-entry treatment. It is filed as cell-based.

In the case of `NC12CC3CC(CC(C3)C1)C2` [Amantadine, amantadine], the Cmax in data set [1] (200 mg) was 2700 nM. In data set [2], the EC50 is 16 µM. Further, the viability in data set [3] was more than 50%. Also, the “PPB, plasma protein binding, % of compound bound to plasma proteins” value in data set [4] (plasma) is 67%.

With `CC12CC3CC(C)(C1)CC(N)(C3)C2` [Memantine, memantine], the “PPB, plasma protein binding, % of compound bound to plasma proteins” value in data set [4] (ref FDA reports) is recorded as 45%.

For the molecule `CCC(CC)COC(=O)[C@H](C)N[P@](=O)(OC[C@H]1O[C@@](C#N)(c2ccc3c(N)ncnn23)[C@H](O)[C@@H]1O)Oc1ccccc1` [Remdesivir, remdesivir], the EC50 in data set [5] is 2500 nM.

In the case of `CC(N)C12CC3CC(CC(C3)C1)C2` (centres unmarked) [Rimantadine, rimantadine], in data set [6], the inhibition at 230 µM was more than 99%. In data set [1], the Cmax is 2200 nM.
